Data published in PubChem BioAssay (NCI).
Values joined by “and” are separate entries in the source; they are usually repeats but may differ in a detail not shown here. Equal entries are not always repeated.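 Briefly, cells in 96-well plates were exposed to five compound concentrations for 48 h, and endpoints were estimated by linear interpolation. Here, GI50 denotes the concentration required for 50% inhibition of growth. The concentration for full growth arrest is given as TGI.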

Experiments:
Assay in all cases: NCI-60 cell line screen, 48 h
RXF 393 renal = system: RXF 393 renal
MALME-3M melanoma = system: MALME-3M melanoma
SNB-19 CNS = system: SNB-19 CNS
SNB-75 CNS = system: SNB-75 CNS
KM12 colon = system: KM12 colon
RPMI-8226 leukemia = system: RPMI-8226 leukemia
U251 CNS = system: U251 CNS
UO-31 renal = system: UO-31 renal
LOX IMVI melanoma = system: LOX IMVI melanoma
ACHN renal = system: ACHN renal

Row | SMILES | GI50 (RXF 393 renal) | TGI (RXF 393 renal) | GI50 (MALME-3M melanoma) | TGI (MALME-3M melanoma) | GI50 (SNB-19 CNS) | TGI (SNB-19 CNS) | GI50 (SNB-75 CNS) | TGI (SNB-75 CNS) | GI50 (KM12 colon) | TGI (KM12 colon) | GI50 (RPMI-8226 leukemia) | TGI (RPMI-8226 leukemia) | GI50 (U251 CNS) | TGI (U251 CNS) | GI50 (UO-31 renal) | TGI (UO-31 renal) | GI50 (LOX IMVI melanoma) | TGI (LOX IMVI melanoma) | GI50 (ACHN renal) | TGI (ACHN renal)
1 | O=C(NCc1cccnc1)/C(=C\c1ccc(Br)cc1)S(=O)(=O)c1ccccc1 | 413 nM | 1420 nM | 1130 nM | 2580 nM | 1430 nM | 2830 nM | 1050 nM | 2340 nM | 1530 nM | 3470 nM | 408 nM | 2430 nM | 774 nM | 2230 nM | 904 nM | 2210 nM | 450 nM | 1730 nM | 719 nM | 1970 nM
2 | COc1ccc(-c2nn(-c3cccc(Cl)c3)cc2C=C(C#N)C#N)cc1 | 1850 nM | 4990 nM | 2660 nM | 7760 nM | 2630 nM | > 100000 nM | 1810 nM | 4510 nM | 2830 nM | 8860 nM | 2300 nM | 7100 nM | 1590 nM | 3330 nM | 2210 nM | 7880 nM | 2080 nM | 4810 nM | 2640 nM | 8820 nM
3 | CN(C)CCCNc1nn2c(=O)c3ccccc3nc2c2ccccc12 | 14200 nM | 30600 nM | 11800 nM | 29800 nM | 13200 nM | 43900 nM | 2730 nM | 51100 nM | 11200 nM | 27200 nM | 11900 nM | 33700 nM | 10800 nM | 26500 nM | 3550 nM | 18200 nM | 3800 nM | 17200 nM | 3750 nM | 15000 nM
4 | COc1ccc(-c2ccc3c(NC(=O)C4CC4)n[nH]c3n2)cc1 | 15000 nM | > 25000 nM | > 25000 nM | > 25000 nM | 15900 nM | > 25000 nM | 5100 nM | > 17200 nM | > 25000 nM | > 25000 nM | > 25000 nM | > 25000 nM | 18000 nM | > 25000 nM | > 20000 nM | > 25000 nM | > 25000 nM | > 25000 nM | > 25000 nM | > 25000 nM
5 | S=c1nc[nH]c2c1ncn2Cc1ccco1 | – | > 100000 nM | – | > 100000 nM | – | > 100000 nM | – | > 100000 nM | – | > 100000 nM | – | > 100000 nM | – | > 100000 nM | – | > 100000 nM | – | > 100000 nM | – | > 100000 nM
6 | CCSc1oc(-c2ccccc2)nc1[P+](c1ccccc1)(c1ccccc1)c1ccccc1 | 331 nM | 1930 nM | 287 nM | 1300 nM | 293 nM | 3880 nM | 177 nM | 727 nM | 233 nM | 1090 nM | 135 nM | 520 nM | 163 nM | 4610 nM | 321 nM | 1380 nM | 184 nM | 412 nM | 309 nM | 1130 nM
7 | CCOC(=O)C1N(S(=O)(=O)c2ccc(C)cc2)CCC12c1ccccc1N(C(C)=O)C2C(/C=C/C(=O)OC)=C/C(=O)OC (configuration not stated) | – | > 100000 nM | – | > 100000 nM | – | > 100000 nM | – | > 100000 nM | – | > 100000 nM | – | > 100000 nM | – | > 100000 nM | – | > 100000 nM | – | > 100000 nM | – | > 100000 nM
8 | C/C1=C\[C@H](C)C[C@H](C)OC(=O)C[C@H](c2ccc(O)cc2)NC(=O)[C@@H](Cc2c(Br)[nH]c3ccccc23)N(C)C(=O)[C@H](C)NC(=O)[C@@H](C)C1 | 228 nM | 464 nM and 615 nM | 32 nM | 404 nM and 196 nM | 23.2 nM | 56.8 nM | 16.8 nM | 175 nM and 33.5 nM | – | 39800 nM | < 17.6 nM | – | 32.8 nM | 859 nM and 740 nM | 96.8 nM | 351 nM and 238 nM | 13.5 nM | 317 nM and 53.3 nM | 22.8 nM | 89.4 nM
9 | O=C1c2ccccc2C(=O)c2c(NCCCNCCO)ccc(NCCCNCCO)c21 | – | 18200 nM | – | 27900 nM | – | 20900 nM | – | 23300 nM | – | 18400 nM | – | 53100 nM | – | 23300 nM | – | 28400 nM | – | 14900 nM | – | 25500 nM
10 | Cn1nc(C(F)(F)F)c(-c2ccc(Cl)c(C(F)(F)F)c2)c1-c1ccc(OCc2ccc(Cl)cc2)cc1O | 1410 nM | 4320 nM | 1390 nM | 4960 nM | 2030 nM | 8170 nM | 1450 nM | 7540 nM | 1600 nM | 5910 nM | 1980 nM | 7290 nM | 1660 nM | 5620 nM | 1260 nM | 4390 nM | 1580 nM | 5730 nM | 1610 nM | 5030 nM
11 | Cc1cc(C)cc(-n2c3nc(=O)n(C)c(=O)c-3nc3ccccc32)c1 | – | > 100000 nM | – | 30300 nM | – | 50900 nM | – | > 100000 nM | – | > 100000 nM | – | > 100000 nM | – | 50500 nM | – | > 100000 nM | – | 91800 nM | – | > 100000 nM
12 | CC[C@@]1(O)C(=O)NCc2c1cc1n(c2=O)Cc2cc3ccccc3nc2-1 | 6110 nM | > 80600 nM | 83900 nM | > 100000 nM | 1920 nM | > 100000 nM | 4220 nM | > 28500 nM | > 50600 nM | > 100000 nM | 2150 nM | > 43300 nM | 2390 nM | > 42800 nM | 1770 nM | 13100 nM | 2060 nM | > 100000 nM | 578 nM | –
13 | COc1ccc(-c2ccc(/C=C/C(=O)NO)cc2)cc1 | 554 nM | 3030 nM | 650 nM | 11800 nM | 2420 nM | 11400 nM | 1380 nM | 5060 nM | 1110 nM | > 100000 nM | 697 nM | > 100000 nM | 1140 nM | 3080 nM | 281 nM | 2140 nM | 417 nM | 2610 nM | 1070 nM | 4480 nM
14 | CCN1CCN(c2nc(NNC(=O)Cc3ccccc3)nc(N3CCN(C(c4ccccc4)c4ccccc4)CC3)n2)CC1 | 1920 nM | 4080 nM | 1640 nM | 3290 nM | 3350 nM | 11700 nM | 1780 nM | 4360 nM | 2070 nM | 4350 nM | 1790 nM | 4310 nM | 1780 nM | 3600 nM | 1390 nM | 2820 nM | 1890 nM | 3430 nM | 1650 nM | 3070 nM
